Test results from patent publication US8647867B2, “Cell cultivation method and cell culture” (National University Corportion Okayama University, priority 2005, dated 2014).

Tests used:
porcine hepatocyte [1] = assay: Morphological study of cultured porcine hepatocyte by phase-contrast and electron microscope; format: cell-based
Protocol: Recently, it has been known that when three-dimensional culture of cells is performed on scaffold, cell functions are improved and maintained. […]

human hepatocyte [2] = assay: Morphological study of cultured human hepatocyte by phase-contrast and electron microscope; format: cell-based; details: culture without insert, phase-contrast microscope days 1 and 5, electron microscope day 5
Protocol: (§1) Donor liver judged to be unsuitable for transplantation in the United States was obtained from National Disease Research Interchange via HUMAN & ANIMAL BRIDGING […] ORGANIZATION laboratory (Ichikawa city, Chiba prefecture, responsible person) in the form of liver block (130 g) which was then separated into hepatocyte in the same manner as for the above-described isolation of porcine hepatocyte in Example 1.
Recently, it has been known that when three-dimensional culture of cells is performed on scaffold, cell functions are improved and maintained. […] In contrast, human hepatocytes cultured with collagen type I (monolayer) (group B) adhered in flat form to the surface of the culture flask (see, Photograph 1 in FIG. 7(a)). […] As a result, it was clarified that it is more suitable for culture of human hepatocyte to use PuraMatrix of SEQ ID NO:1.

porcine pancreatic islet = assay: Insulin production ability of cultured porcine pancreatic islet; format: cell-based
Protocol: A process of isolation of porcine pancreatic islet was carried out according to the method for isolation of human pancreatic islet (see, Lakey J R T, Kobayashi N, Shapiro A M J, Ricordi C, Okitsu T: Current human islet isolation protocol. Medical Review Co., Ltd., Osaka, Japan, 2004), and followed a method in a published literature (Yonekawa Y, Matsumono S, Okitsu T, Arata T, Iwanaga Y, Noguchi H, Nagata H, O'Neil J J, Tanaka K: Effective islet isolation method with extremely high islet yields from adult pigs. Cell Transplant. 14(10): 757-62, 2005). Those skilled in the art are capable of isolating pancreatic islet by referring to this literature.
Insulin production abilities of cultured porcine pancreatic islet were determined and compared between groups A and B. Using low glucose DMEM (glucose concentration: […]) (available from 25 GIBCO, Oakland, N.J.) supplemented with 10% FCS, nicotineamide 10 mM and penicillin G/streptomycin, cells were cultured for 24 hours until 60% confluency (low glucose). Then, the medium was changed for high glucose DMEM (glucose concentration: […]) (available from GIBCO, Oakland, N.J.) supplemented with 10% FCS, nicotineamide 10 mM and penicillin G/streptomycin, and cells were cultured for 6 hours (high glucose). After high glucose culture, the medium was exchanged for low glucose DMEM and cells were cultured for 6 hours (low glucose (after)). After each culture operation, the production amount of insulin in the culture medium (μg/l) was determined by an immunostaining method using a rabbit anti-human insulin antibody (available from DakoCytomation K. K., Kyoto, Japan).

human hepatocyte [3] = assay: Metabolic ability of ammonia in cultured human hepatocyte; format: cell-based; details: culture without insert; for ammonia metabolic rate: ammonium sulfate 0.56 mM, after 24 hours
Excerpt: as §1

porcine hepatocyte [4] = assay: Metabolic ability of diazepam in cultured porcine hepatocyte
Protocol: Large white male pigs (body weight: 15 to 20 kg) were used. 1.5 ml of ketalar for intramuscular injection was injected to cause sedation and then, auricular vein was acquired and 5 mg/kg of isozol and 1 mg/kg of musculax were administered intravenously to obtain muscle relaxation. After endotracheal intubation, peritoneotomy was performed under general anesthesia with sevoflurene under controlled ventilation by an artificial respirator. A liver lateral region of the pig was surgically excised (about 80 g), perfusion was performed through excised cross-section portal vein and hepatic vein. First, the excised liver was perfused with a primary perfusion solution (sodium chloride 9 g/L, potassium chloride 0.42 g/L, sodium hydrogen carbonate 2.1 g/L, glucose 0.9 g/L, HEPES 4.78 g/L, ethylenediamine tetraacetic acid (EDTA) 0.37 g/L), subsequently, perfused with a secondary perfusion solution containing no EDTA (sodium chloride 9 g/L, potassium chloride 0.42 g/L, sodium hydrogen carbonate 2.1 g/L, glucose 0.9 g/L, HEPES 4.78 g/L). Thereafter, perfusion of the liver, kept at 39° C., was done with a dispase solution (sodium chloride 9 g/L, potassium chloride 0.42 g/L, sodium hydrogen carbonate 2.1 g/L, glucose 0.9 g/L, HEPES 4.78 g/L, dispase 8.4 g/L) (available from Godo Shusei K. K., Tokyo, Japan) and finally, with a collagenase solution (sodium chloride 9 g/L, potassium chloride 0.42 g/L, sodium hydrogen carbonate 2.1 g/L, glucose 0.9 g/L, HEPES 4.78 g/L, collagenase 0.5 g/L (available from Nitta Gelatin Inc., Osaka, Japan), calcium chloride monohydrate 0.55 g/L). […]
The metabolic abilities of diazepam in cultured porcine hepatocyte were measured and compared between groups A and B. Diazepam (1 pg/ml) was added to porcine hepatocyte media on days 1, 7 and 14 of culture, and the concentration of diazepam in the media after 24 hours was measured (entrusted to SRL K. K.), and the metabolic rate was calculated.

porcine hepatocyte [5] = assay: Viability of porcine hepatocyte (live/dead test); format: cell-based; details: culture without insert, days 1, 7 and 14 of culture
Excerpt: Therefore, it was clarified that it is more suitable for culture of porcine hepatocyte to use PuraMatrix of SEQ ID NO:1 Since the appended Photographs are converted into white and black two tones, dyed colors are not expressed.

[6] = culture without insert, days 1, 7 and 14

## CC(=O)N[C@@H](CCCNC(=N)N)C(=O)N[C@@H](C)C(=O)N[C@@H](CC(=O)O)C(=O)N[C@@H](C)C(=O)N[C@@H](CCCNC(=N)N)C(=O)N[C@@H](C)C(=O)N[C@@H](CC(=O)O)C(=O)N[C@@H](C)C(=O)N[C@@H](CCCNC(=N)N)C(=O)N[C@@H](C)C(=O)N[C@@H](CC(=O)O)C(=O)N[C@@H](C)C(=O)N[C@@H](CCCNC(=N)N)C(=O)N[C@@H](C)C(=O)N[C@@H](CC(=O)O)C(=O)N[C@@H](C)C(N)=O [Group A, Ac-(RADA)4-CONH2]
Porcine hepatocyte [1]; culture with insert, day 3 of culture, transmission electron microscope
  formation of cell adhesion apparatus and bile canaliculi between hepatocytes: a cell adhesion apparatus 5 and a bile canaliculi 6 were formed between hepatocytes
Porcine hepatocyte [1]; culture without insert, phase-contrast microscope days 1, 7, 14, electron microscope day 5
  formation of three-dimensional spheroid by hepatocytes: formation of three-dimensional spheroid by hepatocytes was confirmed
Human hepatocyte [2]
  formation of three-dimensional spheroid by hepatocytes: formation of three-dimensional spheroid by hepatocytes was confirmed
Porcine pancreatic islet; porcine islets (10 seeded), day 0 of culture, low glucose (100 g/l, 24 hours)
  production amount of insulin in the culture medium: 0.80 µg/L
Porcine pancreatic islet; porcine islets, day 0 of culture, high glucose (450 g/l, 6 hours)
  production amount of insulin in the culture medium: 1.62 µg/L
Porcine pancreatic islet; porcine islets, day 0 of culture, low glucose (after), 6 hours
  production amount of insulin in the culture medium: 1.01 µg/L
Porcine pancreatic islet; porcine islets, day 3 of culture, high glucose (450 g/l, 6 hours)
  production amount of insulin in the culture medium: 1.48 µg/L
Porcine pancreatic islet; porcine islets, day 3 of culture, low glucose (100 g/l, 24 hours)
  production amount of insulin in the culture medium: 0.80 µg/L
Porcine pancreatic islet; porcine islets, day 3 of culture, low glucose (after), 6 hours
  production amount of insulin in the culture medium: 0.90 µg/L
Porcine pancreatic islet; porcine islets, day 5 of culture, high glucose (450 g/l, 6 hours)
  production amount of insulin in the culture medium: 1.24 µg/L
Porcine pancreatic islet; porcine islets, day 5 of culture, low glucose (100 g/l, 24 hours)
  production amount of insulin in the culture medium: 0.69 µg/L
Porcine pancreatic islet; porcine islets, day 5 of culture, low glucose (after), 6 hours
  production amount of insulin in the culture medium: 0.78 µg/L
Porcine pancreatic islet; porcine islets, day 7 of culture, high glucose (450 g/l, 6 hours)
  production amount of insulin in the culture medium: 0.90 µg/L
Porcine pancreatic islet; porcine islets, day 7 of culture, low glucose (100 g/l, 24 hours)
  production amount of insulin in the culture medium: 0.49 µg/L
Porcine pancreatic islet; porcine islets, day 7 of culture, low glucose (after), 6 hours
  production amount of insulin in the culture medium: 0.71 µg/L
Porcine pancreatic islet; porcine pancreatic islet, day 5 of culture
  amount of insulin secreted in high glucose concentration (response to glucose concentration): increased
Human hepatocyte [3]; Table 4(a), day 1 of culture
  ammonia metabolic rate: 45.0
Human hepatocyte [3]; Table 4(a), day 3 of culture
  ammonia metabolic rate: 32.8
Human hepatocyte [3]; Table 4(a), day 5 of culture
  ammonia metabolic rate: 20.4
Human hepatocyte [3]; Table 4(b), day 1 of culture
  ammonia metabolic rate: 45.0
Human hepatocyte [3]; Table 4(b), day 3 of culture
  ammonia metabolic rate: 32.8
Human hepatocyte [3]; Table 4(b), day 5 of culture
  ammonia metabolic rate: 20.4
Human hepatocyte [3]; days 1, 3 and 5
  ammonia metabolic rate as compared with collagen type I (monolayer) (group B): significantly better
  ammonia metabolic rate as compared with collagen type I (monolayer) (group B) and Matrigel (group C): significantly better
Porcine hepatocyte [4]; culture with insert, days 1, 7, 14 and 21
  diazepam metabolic rate as compared with collagen type I (monolayer) (group B), Matrigel (group C) and collagen sandwich (group D): significantly better
Porcine hepatocyte [4]; [6]
  diazepam metabolic rate as compared with collagen type I (monolayer) (group B): significantly better
  diazepam metabolic rate as compared with collagen type I (monolayer) (group B) and Matrigel (group C): significantly better
Porcine hepatocyte [5]
  viability of porcine hepatocytes (live cells green, dead cells red): most cells exhibited a green color
